Format in all cases: biochemical
One test concerns the target T1, PDGFRβ kinase (Homo sapiens, UniProt P09619).
T1 construct: purchased Invitrogen Inc. P3082
The experiment in a line: In vitro PDGFRβ kinase assay. The protocol: (§1) In Vitro VEGFR2 and PDGFRP Kinase Assays
(§2) 2.5 μl of ADP Quest assay buffer (DiscoverX Inc., cat. #90-0071) containing 20 ng VEGFR2 kinase (Invitrogen Inc, cat. #PV3660) or 25 ng PDGFRβ kinase (Invitrogen Inc., cat. #P3082) is dispensed to wells of a 1536 multi-well, black solid plate. 60 nl of 100× concentration of test compound in DMSO is dispensed to the well by passive pin transfer and incubated for 10 minutes at room temperature (approx. 22° C.). 2.5 μl of ADP Quest assay buffer containing 0.25 μg of poly Glu:Tyr (4:1) substrate peptide (Upstate Inc., cat. #12-440) and 60 μM ATP is then dispensed and the kinase reaction allowed to incubate at 30° C. for 2 hours. The assay plates are sealed and maintained in a humidified environment. After the 2 hour incubation, 2 μl of ADP Quest assay reagent A, followed by 2 μl of assay reagent B, is added. After an additional 30 minute incubation at room temperature, fluorescence intensity is measured on a Molecular Devices Aquest multi-mode plate reader or other suitable plate reader (fluorescence excitation filter: 530/25 [Peak(nm)/FWHM passband(nm)]; dichroic beamsplitter: 561 nm longpass; fluorescence emission filter: 580/10 [Peak(nm)/FWHM passband(nm)]. The assay measures the conversion of a non-fluoresecent molecule to fluorescent resorufin, which correlates with kinase activity. Negative control activity is measured with DMSO lacking any test compound. The positive control is [N-(3-trifluoromethyl-4-chlorophenyl)-N′-(4-(2-methylcarbamoyl-pyridin-4-yl)oxyphenyl)urea], aka Bay 43-9006. Efficacy is measured as a percentage of positive control activity.

The target in another test is T2, VEGFR2 kinase (Homo sapiens, UniProt P35968).
T2 construct: purchased Invitrogen Inc PV3660
Kind of test: In vitro VEGFR2 kinase assay. How it is done:
as §1, §2

The target of test [1] is T3, human B-Raf protein kinase (Homo sapiens, UniProt P15056).
T3 construct: GST (N); purchased Upstate Inc. 14-530 (B-Raf); 14-420 (Mek1)
Kind of test: In vitro B-Raf/Mek1 composite kinase assay. The protocol:
In Vitro B-Raf/Mek1 Composite Kinase Assay
2.5 μl of B-Raf kinase buffer (20 mM MOPS [pH 7.2], 25 mM sodium glycerophosphate, 2 mM EGTA [pH 8.0], 1 mM sodium orthovanadate, 1 mM dithiothreitol, 10 mM MgCl2, 0.03% Brij-35, 0.3 mg/ml bovine serum albumin) containing lng of recombinant, N-terminal GST-tagged human B-Raf protein kinase (Δ1-415, Upstate Inc., cat. #14-530) is dispensed to wells of a 1536 multi-well white solid plate. 60 nl of 100× concentration of test compound in DMSO is dispensed to the well by passive pin transfer and incubated for 15 minutes at room temperature (approx. 22° C.). […] The assay plates are sealed and maintained in a humidified environment. After 2 hours, 2.5 μl of PKLight protein kinase assay reagent (Cambrex, cat. #LT07-501) is dispensed. After an additional 5 minute incubation at room temperature, luminescence activity is measured on a Molecular Devices Analyst multi-mode plate reader or other suitable plate reader. Kinase inhibition results in less ATP depletion, and therefore increased luminescence signal. Negative control activity is measured with DMSO lacking any test compound. The positive control is [N-(3-trifluoromethyl-4-chlorophenyl)-N′-(4-(2-methylcarbamoyl-pyridin-4-yl)oxyphenyl)urea], aka Bay 43-9006. Efficacy is measured as a percentage of positive control activity.

Consider 22 molecules from patent US20070155746A1, “NOVEL SUBSTITUTED PYRIDINYLOXY AND PYRIMIDINYLOXY AMIDES USEFUL AS INHIBITORS OF PROTEIN KINASES” (KALYPSYS, INC., priority 2005, published 2007).

T1 sequence (P09619 33-1106): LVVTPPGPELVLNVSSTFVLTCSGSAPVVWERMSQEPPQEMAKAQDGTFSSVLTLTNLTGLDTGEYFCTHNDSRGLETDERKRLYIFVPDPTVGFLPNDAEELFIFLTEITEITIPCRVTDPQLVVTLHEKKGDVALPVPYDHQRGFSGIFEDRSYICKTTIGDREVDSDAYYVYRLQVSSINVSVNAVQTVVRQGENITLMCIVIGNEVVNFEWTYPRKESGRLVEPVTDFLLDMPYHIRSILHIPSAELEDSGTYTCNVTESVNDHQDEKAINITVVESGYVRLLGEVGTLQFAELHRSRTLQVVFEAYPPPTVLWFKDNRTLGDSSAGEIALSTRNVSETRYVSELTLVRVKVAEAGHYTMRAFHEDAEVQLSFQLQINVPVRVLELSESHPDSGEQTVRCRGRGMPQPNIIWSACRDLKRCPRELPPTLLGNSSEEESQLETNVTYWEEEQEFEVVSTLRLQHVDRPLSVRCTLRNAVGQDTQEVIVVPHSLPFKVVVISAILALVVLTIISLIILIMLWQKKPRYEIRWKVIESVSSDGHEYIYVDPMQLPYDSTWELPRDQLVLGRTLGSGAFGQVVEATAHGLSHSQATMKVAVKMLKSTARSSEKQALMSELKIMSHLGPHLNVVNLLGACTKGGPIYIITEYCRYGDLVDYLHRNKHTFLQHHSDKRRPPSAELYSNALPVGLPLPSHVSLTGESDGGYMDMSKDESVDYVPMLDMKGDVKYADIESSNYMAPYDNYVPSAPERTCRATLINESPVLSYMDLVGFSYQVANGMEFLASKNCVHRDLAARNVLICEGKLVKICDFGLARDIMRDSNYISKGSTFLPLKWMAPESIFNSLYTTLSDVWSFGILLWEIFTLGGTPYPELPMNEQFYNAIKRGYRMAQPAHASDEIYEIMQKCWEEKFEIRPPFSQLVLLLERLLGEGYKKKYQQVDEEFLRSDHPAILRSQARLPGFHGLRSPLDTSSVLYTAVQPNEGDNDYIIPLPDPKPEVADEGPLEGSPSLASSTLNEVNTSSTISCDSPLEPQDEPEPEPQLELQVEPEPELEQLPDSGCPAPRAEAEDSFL
T2 sequence (P35968 20-1356): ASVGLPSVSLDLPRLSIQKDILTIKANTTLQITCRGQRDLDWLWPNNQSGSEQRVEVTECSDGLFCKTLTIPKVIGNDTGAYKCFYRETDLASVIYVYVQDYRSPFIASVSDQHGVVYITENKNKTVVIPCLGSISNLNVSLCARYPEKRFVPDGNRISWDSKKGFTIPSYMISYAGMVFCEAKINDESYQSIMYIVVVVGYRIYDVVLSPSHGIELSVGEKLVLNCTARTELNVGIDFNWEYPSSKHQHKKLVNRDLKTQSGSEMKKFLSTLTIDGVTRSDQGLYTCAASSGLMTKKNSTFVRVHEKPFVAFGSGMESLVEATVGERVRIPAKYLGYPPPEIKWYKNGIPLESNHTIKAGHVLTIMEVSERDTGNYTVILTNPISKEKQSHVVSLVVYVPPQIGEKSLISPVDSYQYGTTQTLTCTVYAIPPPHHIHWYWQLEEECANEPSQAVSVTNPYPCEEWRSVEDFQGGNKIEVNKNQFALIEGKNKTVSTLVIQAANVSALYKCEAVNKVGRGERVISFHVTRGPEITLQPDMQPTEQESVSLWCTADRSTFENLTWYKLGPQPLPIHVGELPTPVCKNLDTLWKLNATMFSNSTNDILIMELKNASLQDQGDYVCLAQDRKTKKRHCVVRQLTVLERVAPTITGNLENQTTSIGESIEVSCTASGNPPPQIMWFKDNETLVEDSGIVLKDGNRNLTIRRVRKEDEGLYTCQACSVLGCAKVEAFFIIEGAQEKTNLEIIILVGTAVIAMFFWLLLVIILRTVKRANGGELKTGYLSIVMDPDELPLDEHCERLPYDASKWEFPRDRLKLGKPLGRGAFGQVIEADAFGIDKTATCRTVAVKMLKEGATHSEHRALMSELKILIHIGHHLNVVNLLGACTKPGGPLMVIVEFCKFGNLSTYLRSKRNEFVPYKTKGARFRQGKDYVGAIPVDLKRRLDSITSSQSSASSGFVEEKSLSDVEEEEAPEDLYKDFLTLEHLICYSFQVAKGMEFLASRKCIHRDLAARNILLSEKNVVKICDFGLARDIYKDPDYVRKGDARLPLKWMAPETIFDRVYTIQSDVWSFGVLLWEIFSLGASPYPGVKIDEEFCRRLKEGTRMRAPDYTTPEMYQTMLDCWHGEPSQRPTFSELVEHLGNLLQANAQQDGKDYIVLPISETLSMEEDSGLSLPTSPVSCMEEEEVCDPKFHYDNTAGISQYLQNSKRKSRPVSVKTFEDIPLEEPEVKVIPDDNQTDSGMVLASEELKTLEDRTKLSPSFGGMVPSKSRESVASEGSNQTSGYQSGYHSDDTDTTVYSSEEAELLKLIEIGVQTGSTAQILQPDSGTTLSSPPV
T3 sequence (P15056 416-766): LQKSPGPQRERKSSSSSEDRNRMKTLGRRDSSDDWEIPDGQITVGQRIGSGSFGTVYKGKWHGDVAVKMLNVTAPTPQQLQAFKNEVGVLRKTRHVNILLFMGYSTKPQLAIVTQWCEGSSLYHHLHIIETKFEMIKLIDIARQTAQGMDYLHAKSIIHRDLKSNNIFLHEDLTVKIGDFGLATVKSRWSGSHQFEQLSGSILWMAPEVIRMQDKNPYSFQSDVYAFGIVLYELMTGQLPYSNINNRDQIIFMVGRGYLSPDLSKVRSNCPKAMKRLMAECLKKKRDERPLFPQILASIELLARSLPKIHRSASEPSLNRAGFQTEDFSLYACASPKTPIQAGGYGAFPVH

For orientation: IC50 means the concentration needed to halve the response being measured. A lower IC50 goes with greater potency in that assay. With `Cn1cc(-c2cc(Oc3cccc(NC(=O)c4ccc5[nH]nnc5c4)c3)ccn2)cn1` [Example 65, N-(3-(2-(1-Methyl-1H-pyrazol-4-yl)pyridin-4-yloxy)phenyl)-1H-benzo[d][1,2,3]triazole-5-carboxamide], the IC50 is over 10 µM against PDGFRβ kinase, at most 10 µM against VEGFR2 kinase and at most 10 µM in test [1].
As to `Cn1cc(-c2cc(Oc3cccc(NC(=O)c4ccccc4-n4ccnc4)c3)ccn2)cn1` [Example 36, 2-(1H-Imidazol-1-yl)-N-(3-(2-(1-methyl-1H-pyrazol-4-yl)pyridin-4-yloxy)phenyl) benzamide], the IC50 against PDGFRβ kinase was at most 10 µM; on VEGFR2 kinase, at most 10 µM; in test [1], over 10 µM.
Take `Cn1cc(-c2cc(Oc3cccc(NC(=O)c4cccc(OC(F)(F)F)c4)c3)ccn2)cn1` [Example 40, N-(3-(2-(1-Methyl-1H-pyrazol-4-yl)pyridin-4-yloxy)phenyl)-3-(trifluoromethoxy)benzamide]: the IC50 (at PDGFRβ kinase; against VEGFR2 kinase; in test [1]) was over 10 µM in each case.
Take `Cn1cc(-c2cc(Oc3cccc(NC(=O)c4ccccc4Oc4ccccc4)c3)ccn2)cn1` [Example 54, N-(3-(2-(1-Methyl-1H-pyrazol-4-yl)pyridin-4-yloxy)phenyl)-2-phenoxybenzamide]: the results for the IC50 (on PDGFRβ kinase; at VEGFR2 kinase; in test [1]) were at most 10 µM, over 10 µM and at most 10 µM, respectively.
As to `O=C(Nc1cccc(Oc2ccnc(-c3nnco3)c2)c1)c1ccc(Oc2ccccc2)cc1` [Example 5, N-(3-(2-(1,3,4-Oxadiazol-2-yl)pyridin-4-yloxy)phenyl)-4-phenoxybenzamide], the IC50 against PDGFRβ kinase is over 10 µM; at VEGFR2 kinase, at most 10 µM; in test [1], over 10 µM.
Turning to `Cn1cc(-c2cc(Oc3cccc(NC(=O)c4ccc(C(F)(F)F)cc4)c3)ccn2)cn1` [Example 45, N-(3-(2-(1-Methyl-1H-pyrazol-4-yl)pyridin-4-yloxy)phenyl)-4-(trifluoromethyl)benzamide], the results for the IC50 (against PDGFRβ kinase; against VEGFR2 kinase; in test [1]) were over 10 µM, over 10 µM and at most 10 µM, respectively.
As for `CCOc1cc(OCC)cc(C(=O)Nc2cccc(Oc3ccnc(C(=O)NC)c3)c2)c1` [Example 14, 4-(3-(3,5-Diethoxybenzamido)phenoxy)-N-methylpicolinamide], the IC50 (against PDGFRβ kinase; against VEGFR2 kinase; in test [1]) was over 10 µM throughout.
For the molecule `CNC(=O)c1cc(Oc2cccc(NC(=O)c3ccc(OC)c(OC4CCCC4)c3)c2)ccn1` [Example 15, 4-(3-(3-(Cyclopentyloxy)-4-methoxybenzamido)phenoxy)-N-methylpicolinamide], the IC50 is at most 10 µM on PDGFRβ kinase, at most 10 µM on VEGFR2 kinase and over 10 µM in test [1].
Consider `Cn1cc(-c2cc(Oc3cccc(NC(=O)c4cccc5c4OCC5)c3)ccn2)cn1` [Example 68, N-(3-(2-(1-Methyl-1H-pyrazol-4-yl)pyridin-4-yloxy)phenyl)-2,3-dihydrobenzofuran-7-carboxamide], for which the IC50 was over 10 µM on PDGFRβ kinase, over 10 µM against VEGFR2 kinase and at most 10 µM in test [1].
With `CCCCOc1cc(C(=O)Nc2cccc(Oc3ccnc(-c4nnco4)c3)c2)ccc1OC` [Example 10, N-(3-(2-(1,3,4-Oxadiazol-2-yl)pyridin-4-yloxy)phenyl)-3-butoxy-4-methoxybenzamide], the concentration for half-maximal inhibition (IC50) on PDGFRβ kinase is at most 10 µM; against VEGFR2 kinase, at most 10 µM; in test [1], over 10 µM.
On to `Cn1cc(-c2cc(Oc3ccc(F)c(NC(=O)c4ccc(Cl)c(C(F)(F)F)c4)c3)ncn2)cn1` [Example 26, 4-Chloro-N-(2-fluoro-5-(6-(1-methyl-1H-pyrazol-4-yl)pyrimidin-4-yloxy)phenyl)-3-(trifluoromethyl)benzamide], for which the IC50 (on PDGFRβ kinase; on VEGFR2 kinase; in test [1]) was over 10 µM in each case.
With `CCOc1ccc(C(=O)Nc2cccc(Oc3ccnc(-c4nnco4)c3)c2)cc1OCC` [Example 8, N-(3-(2-(1,3,4-Oxadiazol-2-yl)pyridin-4-yloxy)phenyl)-3,4-diethoxybenzamide], the IC50 on PDGFRβ kinase is over 10 µM; against VEGFR2 kinase it was at most 10 µM; in test [1] it was over 10 µM.
Consider `Cn1cc(-c2cc(Oc3cccc(NC(=O)c4cccc(-c5cccnc5)c4)c3)ccn2)cn1` [Example 33, N-(3-(2-(1-Methyl-1H-pyrazol-4-yl)pyridin-4-yloxy)phenyl)-3-(pyridin-3-yl)benzamide], for which the IC50 against PDGFRβ kinase was over 10 µM; against VEGFR2 kinase it was at most 10 µM; in test [1], over 10 µM.
Regarding `Cn1cc(-c2cc(Oc3cccc(NC(=O)c4ccccc4C(=O)c4ccccc4)c3)ccn2)cn1` [Example 49, 2-Benzoyl-N-(3-(2-(1-methyl-1H-pyrazol-4-yl)pyridin-4-yloxy)phenyl)benzamide], the IC50 at PDGFRβ kinase is at most 10 µM; against VEGFR2 kinase it was at most 10 µM; in test [1] it was over 10 µM.
`CCOc1cc(OCC)cc(C(=O)Nc2cccc(Oc3cc(-c4cnn(C)c4)ncn3)c2)c1` [Example 24, 3,5-Diethoxy-N-(3-(6-(1-methyl-1H-pyrazol-4-yl)pyrimidin-4-yloxy)phenyl)benzamide]: the results for the IC50 (against PDGFRβ kinase; at VEGFR2 kinase; in test [1]) were at most 10 µM, over 10 µM and over 10 µM, respectively.
In the case of `Cn1cc(-c2cc(Oc3cccc(NC(=O)c4ccc5[nH]ccc5c4)c3)ccn2)cn1` [Example 70, N-(3-(2-(1-Methyl-1H-pyrazol-4-yl)pyridin-4-yloxy)phenyl)-1H-indole-5-carboxamide], the results for the IC50 (against PDGFRβ kinase; against VEGFR2 kinase; in test [1]) were over 10 µM, at most 10 µM and at most 10 µM, respectively.
For the molecule `Cn1cc(-c2cc(Oc3cccc(NC(=O)c4ccccc4-n4cccc4)c3)ccn2)cn1` [Example 57, N-(3-(2-(1-Methyl-1H-pyrazol-4-yl)pyridin-4-yloxy)phenyl)-2-(1H-pyrrol-1-yl)benzamide], the IC50 (on PDGFRβ kinase; on VEGFR2 kinase; in test [1]) was at most 10 µM throughout.
Turning to `CCOc1cccc(C(=O)Nc2cccc(Oc3ccnc(-c4cnn(C)c4)c3)c2)c1` [Example 72, 3-Ethoxy-N-(3-(2-(1-methyl-1H-pyrazol-4-yl)pyridin-4-yloxy)phenyl)benzamide], the IC50 (at PDGFRβ kinase; on VEGFR2 kinase; in test [1]) was at most 10 µM throughout.
Turning to `Cn1cc(-c2cc(Oc3cccc(NC(=O)c4cc(OC(F)(F)F)cc(OC(F)(F)F)c4)c3)ccn2)cn1` [Example 41, N-(3-(2-(1-methyl-1H-pyrazol-4-yl)pyridin-4-yloxy)phenyl)-3,5-bis(trifluoromethoxy)benzamide], the IC50 (on PDGFRβ kinase; against VEGFR2 kinase; in test [1]) was over 10 µM each time.
On to `O=C(Nc1cccc(Oc2ccnc(-c3nnco3)c2)c1)c1cccc(N2CCCCC2)c1` [Example 11, N-[3-(2-[1,3,4]Oxadiazol-2-yl-pyridin-4-yloxy)-phenyl]-3-piperidin-1-yl-benzamide], for which the figures for the IC50 (at PDGFRβ kinase; against VEGFR2 kinase; in test [1]) were over 10 µM, at most 10 µM and over 10 µM, respectively.
In the case of `Cn1cc(-c2cc(Oc3cccc(NC(=O)c4cccc(-c5ccccn5)c4)c3)ccn2)cn1` [Example 32, N-(3-(2-(1-Methyl-1H-pyrazol-4-yl)pyridin-4-yloxy)phenyl)-3-(pyridin-2-yl)benzamide], the IC50 (against PDGFRβ kinase; on VEGFR2 kinase; in test [1]) was over 10 µM each time.
On to `Cn1cc(-c2cc(Oc3cccc(NC(=O)c4cccc(-c5ccncc5)c4)c3)ccn2)cn1` [Example 34, N-(3-(2-(1-Methyl-1H-pyrazol-4-yl)pyridin-4-yloxy)phenyl)-3-(pyridin-4-yl)benzamide], for which the IC50 (on PDGFRβ kinase; on VEGFR2 kinase; in test [1]) was over 10 µM in each case.
